Patent publication US20160279204A1, “PEPTIDES AND PHARMACEUTICAL COMPOSITIONS FOR USE IN THE TREATMENT BY NASAL ADMINISTRATION OF PATIENTS SUFFERING FROM ANXIETY AND SLEEP DISORDERS” (MAX-PLANCK-GESELLSCHAFT ZUR FÖRDERUNG DER WISSENSCHAFT E.V., priority 2011, published 2016)
Entries after “also recorded” stand apart in the source; their conditions may differ.

What was measured:
[1] = tested on: CA3-CA1 synapses of the VH; experiment: Field potential recordings in VH slices after intranasal NPS; parameters: species or system mouse; conditions: for paired-pulse facilitation: interstimulus intervals 25, 50, 100, 200 ms
Experimental: Mice were then allowed to rest for 2 h before slice preparation and electrophysiological recording.
Brains were dissected and placed in ice-cold carbogenated ACSF. 350 μm horizontal slices containing the VH were prepared using a vibroslicer. Afterwards, the slices were incubated for 30 min at 34° C. and subsequently stored at room temperature. For experiments, slices were placed in a submerged recording chamber and continuously superfused with carbogenated ACSF at a flow rate of 3 mL/min. Square pulse electrical stimuli (50 μs pulse width) were delivered via a bipolar tungsten electrode (insulated to the tip, 50 μm pole diameter) that was positioned within the stratum radiatum of the CA1 region. All recordings were performed at room temperature, low-pass filtered at 1 kHz, and digitised at 5 kHz. Evoked field excitatory postsynaptic potentials (fEPSPs) were recorded using glass micro-electrodes (1 MΩ open-tip resistance), filled with ACSF and also positioned within the CA1 stratum radiatum. Stimulus intensities were adjusted in a manner to produce a fEPSP of ˜50% of that amplitude at which a population spike becomes clearly observable. Paired-pulse facilitation was measured at interstimulus intervals of 25, 50, 100, 200, and 400 ms and the paired-pulse ratio was calculated as fEPSP2 amplitude/fEPSP1 amplitude.

Bl6 and HAB mice = experiment: Dark-light test after intranasal NPS; assay type: in vivo, mouse; conditions: for time spent in the light chamber / total distance traveled: intranasal, 4 hrs
Experimental: Behavioural tests (open field, dark-light test and elevated plus maze (EPM)) following intranasal NPS application were performed sequentially. Each test lasted for 5 min with an inter-test interval of 5 min, as described previously (Bunck et al., 2009; Krömer et al., 2005). The animals' behaviour during testing was videotaped and relevant parameters were analysed with the tracking software ANY-maze version 4.30 (Stoelting, Wood Dale, Ill., USA). Native NPS (1 μg/μL) or vehicle (Ringer solution) were administered intranasally to the alert mouse as described above (total volume: 14 μL). Mice were tested 30 min and 4 hrs after intranasal administration of first drop. Animals were sacrificed 24 hrs after treatment and prefrontal cortex and bilateral hippocampi were prepared immediately and shock-frozen in methylbutane.
After having ascertained that nasally administered NPS reaches its target cells, anxiolytic effects of NPS were established for this transnasal delivery method. For this purpose, nasally 6.36 nmol NPS per mouse was administered to two mouse strains, Bl6 and HAB (high anxiety behaviour) mice. HAB animals, a mouse strain inbred for pathologically high anxiety, were chosen together with Bl6 mice to allow differentiation between the temporary condition of state anxiety and the general condition of trait anxiety (Bunck et al., 2009; Kromer et al., 2005). To accurately characterise the anxiety-relieving properties of NPS in these two mouse strains, three standardised behavioural assays measuring anxiolytic effects at two different time points after intranasal NPS administration were performed. In each test, the effects of intranasal NPS versus vehicle treatment on both anxiety- and locomotion-related indices were examined.

[2] = tested on: evoked neuronal activity flow from the dentate gyrus to area CA1; experiment: Voltage-sensitive dye imaging (VSDI) in VH slices; parameters: species or system mouse; conditions: bath application of NPS 1 μM
Experimental: According to Maggio and Segal (2007) and Fanselow and Dong (2010), VSDI experiments were conducted in the VH. Horizontal brain slices (350 μm-thick) were prepared as described in Refojo et al., 2011 and/or von Wolff et al., 2011). Only the first two slices from the ventral surface of the brain in which the CA1 region was clearly visible were used for the measurements. Staining of slices with the voltage-sensitive dye Di-4-ANEPPS and VSDI were carried out at room temperature (23-25° C.). For staining, slices were kept for 15 min in carbogenated (95% O2/5% CO2) ACSF containing Di-4-ANEPPS (7.5 μg/mL; <0.1% DMSO). The ACSF (pH 7.4) consisted of (in mM): 125 NaCl, 2.5 KCl, 25 NaHCO3, 1.25 NaH2PO4, 2 CaCl2, 1 MgCl2, and 25 glucose. Afterwards, slices were stored for at least 30 min in pure carbogenated ACSF. In the recording chamber, slices were continuously superfused with carbogenated ACSF (3 mL/min flow rate). VSDI and data analysis were performed using the MiCAM02 hard- and software package (BrainVision, Tokyo, Japan). The tandem-lens fluorescence microscope was equipped with the MiCAM02-HR camera and the 2× and 1× lens at the objective and condensing side, respectively. Acquisition settings were: 88×60 pixels frame size, 36.4×40.0 μm pixel size, and 2.2 ms sampling time. To reduce noise, four acquisitions subsequently recorded at intervals of 5 s were averaged. Neuronal activity was evoked by square pulse electrical stimuli (200 μs, 15-20 V) delivered to the dentate gyrus granule cell layer via a custom-made monopolar tungsten electrode (Teflon-insulated to the tip of 75 μm diameter). From recorded signals, the fractional change in fluorescence (ΔF/F) was calculated. For all quantifications, ΔF/F values were spatially and temporally smoothed using a 3×3×3 average filter. VSDI signals presented in images were smoothed with a 5×5×3 average filter. Pixelation of images was reduced by the interpolation function of the MiCAM02 software. […]

## neuropeptide S (SFRNGVGSGVKKTSFRRAKQ; Neuropeptide S; UniProt P0C0P7 70-89, looked up) [NPS, peptide agonist of neuropeptide S receptor (NPSR); native NPS, rat, from Bachem]
[1]; C57BL/6N mice
  magnitude of LTP induced by high-frequency stimulation: weakened; also recorded: decreased the magnitude of LTP
  paired-pulse facilitation: weakened; also recorded: reduced paired-pulse facilitation
[1]; C57BL/6N mice, approximately 3 h after treatment
  input-output curve (fEPSP amplitudes): shift of input-output curves towards bigger fEPSP amplitudes; also recorded: shift of the input-output curve towards bigger fEPSP amplitudes
[1]; HAB mice
  input-output curve (fEPSP amplitudes): increase; also recorded: shift of the input-output curve towards bigger fEPSP amplitudes
  magnitude of LTP: reduction; also recorded: decreased the magnitude of LTP
  paired-pulse facilitation: reduction; also recorded: reduced paired-pulse facilitation
Bl6 and HAB mice; Bl6 and HAB mice, intranasal 6.36 nmol per mouse, 30 min
  behavioural differences versus vehicle in dark-light test: no behavioural differences
Bl6 and HAB mice; Bl6 mice
  time spent in the light chamber: did not differ significantly
  total distance traveled: did not differ significantly
Bl6 and HAB mice; HAB mice
  time spent in the light chamber: significantly increased
  total distance traveled: unaffected
[2]
  activity flow from the dentate gyrus to the CA1 subfield: rapidly weakened
[2]; dentate hilus, CA3 region, area CA1
  FDS peak amplitudes: reduced the amplitude of FDSs in the dentate hilus, the CA3 region, and area CA1; also recorded: decreased FDS peak amplitudes
